TGI and GI50 data for 14 compounds are collected here from PubChem BioAssay (NCI).

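Step 1: Grow cells in 96-well plates. Step 2: Expose to compound for 48 hours at 5 concentrations. Step 3: Interpolate endpoints linearly; if unreached, use highest concentration. Here, GI50 denotes the concentration required for 50% inhibition of growth. Definition used: TGI = concentration required for complete inhibition of growth.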

Some test systems named below: A549 NSCLC; CCRF-CEM leukemia; HCT-116 colon; KM12 colon; LOX IMVI melanoma; M14 melanoma; NCI-H522 lung; OVCAR-3 ovarian; OVCAR-5 ovarian; UACC-62 melanoma.
What all share (test): DTP human tumour cell line panel, 48 h

`CCOc1ccc(NC(=O)C(=O)CC(=O)c2c[n+](=O)c3cc(C)c(C)cc3n2[O-])cc1`: the TGI in the assay with A549 NSCLC, with CCRF-CEM leukemia, in the assay on HCT-116 colon, in the assay with KM12 colon, in the assay on LOX IMVI melanoma and with M14 melanoma was over 100 µM throughout. Also, the TGI with NCI-H522 lung, in the assay on OVCAR-3 ovarian, in the assay on OVCAR-5 ovarian and in the assay on UACC-62 melanoma was over 100 µM throughout.

For the compound `Cn1cc(C2=C(c3cn(C)c4ncccc34)C(=O)NC2=O)c2ccccc21`, the GI50 with A549 NSCLC is 10.1 µM; in the assay on CCRF-CEM leukemia it was 8.41 µM; in the assay with HCT-116 colon it was 8.39 µM; in the assay on KM12 colon, 8.59 µM; in the assay with LOX IMVI melanoma, 6.97 µM; in the assay with M14 melanoma, 9.74 µM. In addition, the GI50 in the assay on NCI-H522 lung is 10.2 µM; in the assay on OVCAR-3 ovarian, 9.93 µM; with OVCAR-5 ovarian it was 10.4 µM; in the assay on UACC-62 melanoma it was 11.7 µM. The total growth inhibition concentration (TGI) in the assay on A549 NSCLC was over 25 µM; in the assay on CCRF-CEM leukemia, over 22.9 µM; in the assay with HCT-116 colon it was over 25 µM; in the assay with KM12 colon it was over 25 µM; in the assay with LOX IMVI melanoma it was over 25 µM; with M14 melanoma, over 25 µM. The TGI in the assay on NCI-H522 lung, in the assay on OVCAR-3 ovarian, with OVCAR-5 ovarian and with UACC-62 melanoma was over 25 µM throughout.

Turning to `Cc1nc2ccccc2c(N)c1-c1cc(C)c2c(C)nc3ccccc3c2n1`, the GI50 is 0.243 µM with A549 NSCLC; 0.362 µM in the assay on CCRF-CEM leukemia; 0.257 µM in the assay with HCT-116 colon; 0.785 µM with KM12 colon; 0.248 µM with LOX IMVI melanoma; 1.34 µM with M14 melanoma. Also, the GI50 is 2.41 µM with NCI-H522 lung, 0.69 µM in the assay on OVCAR-3 ovarian, 1.59 µM with OVCAR-5 ovarian and 1.29 µM with UACC-62 melanoma. The TGI in the assay with A549 NSCLC came to 0.681 µM; with CCRF-CEM leukemia, 2.12 µM; with HCT-116 colon it was 0.728 µM; with KM12 colon, 2.15 µM; in the assay with LOX IMVI melanoma, 0.717 µM; with M14 melanoma, 2.65 µM. For the same compound, the TGI is over 20.5 µM in the assay with NCI-H522 lung, 1.83 µM in the assay with OVCAR-3 ovarian, 3.06 µM with OVCAR-5 ovarian and 2.61 µM with UACC-62 melanoma.

Take `O=C(/C=C/C12c3ccccc3C(c3ccccc31)C1C(=O)NC(=O)C12)c1ccncc1` (stereo not given): the GI50 with A549 NSCLC is 13.4 µM; in the assay on CCRF-CEM leukemia it was 2.39 µM; in the assay with HCT-116 colon, 1.58 µM; in the assay with KM12 colon, 1.85 µM; in the assay on LOX IMVI melanoma, 1.68 µM; in the assay on M14 melanoma, 2.44 µM. The GI50 in the assay on NCI-H522 lung is 1.61 µM; in the assay with OVCAR-3 ovarian, 2.34 µM; in the assay with OVCAR-5 ovarian it was 3.11 µM; in the assay on UACC-62 melanoma it was 1.87 µM. The TGI in the assay on A549 NSCLC came out at 27.2 µM; with CCRF-CEM leukemia, 8.87 µM; in the assay on HCT-116 colon, 4.31 µM; with KM12 colon it was 4.42 µM; in the assay on LOX IMVI melanoma, 3.51 µM; in the assay with M14 melanoma it was 7.65 µM. The TGI in the assay on NCI-H522 lung is 3.74 µM; with OVCAR-3 ovarian it was 5.96 µM; in the assay on OVCAR-5 ovarian, 13.5 µM; in the assay on UACC-62 melanoma, 3.88 µM.

Turning to `Cc1coc2c1CC1(C)C(CCC(O)C1C)C2` (stereo not given), the TGI in the assay on A549 NSCLC, in the assay with CCRF-CEM leukemia, with HCT-116 colon, with KM12 colon, in the assay on LOX IMVI melanoma and in the assay with M14 melanoma was over 100 µM throughout. Also, the TGI in the assay with NCI-H522 lung, in the assay with OVCAR-3 ovarian, in the assay on OVCAR-5 ovarian and in the assay on UACC-62 melanoma was over 100 µM throughout.

In the case of `C=C1C(=O)C23CC1CCC2C12CO[C@@H]4OCC(C)(CC[C@@H]1OC3=O)C42` (stereo not given in full), the TGI stood at 25.1 µM with A549 NSCLC; 12.1 µM in the assay on CCRF-CEM leukemia; 6.33 µM in the assay with HCT-116 colon; 17.3 µM in the assay with KM12 colon; 3.44 µM in the assay with LOX IMVI melanoma; 2.88 µM in the assay with M14 melanoma. The TGI in the assay on NCI-H522 lung stood at 2.33 µM; in the assay on OVCAR-3 ovarian, 16.6 µM; in the assay with OVCAR-5 ovarian, 29.2 µM; in the assay with UACC-62 melanoma, 17.3 µM.

In the case of `O=C1CC(c2ccc3c(c2)OCO3)Nc2ccccc21` (stereo not given), the GI50 with A549 NSCLC is 17.1 µM; in the assay on CCRF-CEM leukemia it was 3.85 µM; in the assay with HCT-116 colon, 10.2 µM; in the assay on KM12 colon, 5.36 µM; in the assay with LOX IMVI melanoma, 5.91 µM; in the assay with M14 melanoma it was 14 µM. The GI50 is 12.9 µM with NCI-H522 lung, 5.01 µM in the assay on OVCAR-3 ovarian, 11.1 µM in the assay with OVCAR-5 ovarian and 11.7 µM in the assay on UACC-62 melanoma. Further, the TGI with A549 NSCLC is 76.6 µM; with CCRF-CEM leukemia, over 100 µM; in the assay with HCT-116 colon it was 23.9 µM; in the assay with KM12 colon, 20.8 µM; in the assay on LOX IMVI melanoma it was 20.5 µM; in the assay on M14 melanoma it was 30.5 µM. The TGI in the assay on NCI-H522 lung is 38.8 µM; with OVCAR-3 ovarian, 21.3 µM; in the assay on OVCAR-5 ovarian, over 55.4 µM; in the assay with UACC-62 melanoma, 30.3 µM.

For `O=C1C2C(C(=O)N1OS(=O)(=O)c1ccccc1)N(Cc1ccccc1)C(=O)N2Cc1ccccc1` (stereo not given), the TGI in the assay on A549 NSCLC, in the assay with CCRF-CEM leukemia, with HCT-116 colon, in the assay on KM12 colon, in the assay on LOX IMVI melanoma and in the assay on M14 melanoma was over 100 µM in each case. The TGI with NCI-H522 lung, in the assay with OVCAR-3 ovarian, in the assay on OVCAR-5 ovarian and in the assay with UACC-62 melanoma was over 100 µM each time.

For the compound `O=CN/C=C/c1cc(O)ccc1O`, the TGI with A549 NSCLC was over 85.4 µM; in the assay with CCRF-CEM leukemia, 23.9 µM; with HCT-116 colon it was 29.2 µM; in the assay on KM12 colon, over 100 µM; in the assay on LOX IMVI melanoma, 28.1 µM; with M14 melanoma, 32.8 µM. For the same compound, the TGI in the assay on NCI-H522 lung was 11.2 µM; in the assay with OVCAR-3 ovarian, 22.5 µM; in the assay with OVCAR-5 ovarian, over 100 µM; with UACC-62 melanoma, 27.3 µM.

Regarding `NC(Cc1c[nH]c2c(O)cccc12)C(=O)O` (stereo not given), the GI50 with A549 NSCLC, with CCRF-CEM leukemia, with HCT-116 colon, with KM12 colon, with LOX IMVI melanoma and in the assay on M14 melanoma was over 100 µM each time. In addition, the GI50 in the assay on NCI-H522 lung, in the assay with OVCAR-3 ovarian, with OVCAR-5 ovarian and in the assay on UACC-62 melanoma was over 100 µM each time. Further, the TGI in the assay on A549 NSCLC, with CCRF-CEM leukemia, with HCT-116 colon, with KM12 colon, in the assay with LOX IMVI melanoma and in the assay with M14 melanoma was over 100 µM throughout. In addition, the TGI in the assay on NCI-H522 lung, in the assay on OVCAR-3 ovarian, with OVCAR-5 ovarian and in the assay on UACC-62 melanoma was over 100 µM throughout.

On to `CCCCC(=O)OCC(=O)[C@]1(O)Cc2c(O)c3c(c(O)c2[C@@H](OC2CC(NC(=O)C(F)(F)F)C(O)C(C)O2)C1)C(=O)c1c(OC)cccc1C3=O` (stereo not given in full), for which the total growth inhibition concentration (TGI) in the assay on A549 NSCLC is 3.83 µM; in the assay with CCRF-CEM leukemia, over 73.6 µM; in the assay with HCT-116 colon, 2.91 µM; in the assay with KM12 colon it was over 70.8 µM; in the assay with LOX IMVI melanoma it was 1.37 µM; in the assay on M14 melanoma it was 8.62 µM. For the same compound, the TGI worked out at 3.9 µM with NCI-H522 lung, 20.1 µM in the assay with OVCAR-3 ovarian, 7.49 µM with OVCAR-5 ovarian and 1.04 µM in the assay on UACC-62 melanoma.

On to `COC1=CC(c2ccc[nH]2)=N/C1=C\c1[nH]c(C)c(C(=O)OC(C)C)c1C`, for which the GI50 in the assay on A549 NSCLC is 0.0505 µM; in the assay on CCRF-CEM leukemia, 0.0316 µM; in the assay on HCT-116 colon, 0.0274 µM; in the assay on KM12 colon, 0.0439 µM; with LOX IMVI melanoma it was 0.0163 µM; with M14 melanoma it was 0.034 µM. For the same compound, the GI50 was 0.0445 µM in the assay with NCI-H522 lung, 0.05 µM in the assay with OVCAR-3 ovarian, 0.144 µM in the assay with OVCAR-5 ovarian and 0.025 µM in the assay with UACC-62 melanoma. Also, the TGI is 1.05 µM in the assay on A549 NSCLC; over 100 µM in the assay on CCRF-CEM leukemia; 1.07 µM in the assay with HCT-116 colon; 1.8 µM in the assay with KM12 colon; 0.0372 µM in the assay on LOX IMVI melanoma; 1.23 µM with M14 melanoma. For the same compound, the concentration for total growth inhibition (TGI) with NCI-H522 lung was determined as 0.637 µM; in the assay on OVCAR-3 ovarian, 0.586 µM; with OVCAR-5 ovarian it was 1.95 µM; in the assay with UACC-62 melanoma it was 0.0578 µM.

Take `Cn1cnc([N+](=O)[O-])c1Sc1nnc(-c2cccnc2)n1C`: the TGI in the assay with A549 NSCLC was over 100 µM; in the assay with CCRF-CEM leukemia, 45 µM; with HCT-116 colon, 40.1 µM; with KM12 colon it was over 100 µM; in the assay with LOX IMVI melanoma it was 34.9 µM; in the assay with M14 melanoma, 35.4 µM. Also, the TGI in the assay on NCI-H522 lung is 15.2 µM; in the assay with OVCAR-3 ovarian, 35.1 µM; with OVCAR-5 ovarian it was over 100 µM; in the assay with UACC-62 melanoma it was 32.6 µM.

Consider `O=C1/C(=C/c2ccccc2)CN(C(=O)C(Cl)(Cl)Cl)C/C1=C\c1ccccc1`, for which the TGI in the assay with A549 NSCLC was 32.4 µM; in the assay with CCRF-CEM leukemia it was 3.86 µM; in the assay on HCT-116 colon, 1.36 µM; with KM12 colon, 3.4 µM; in the assay with LOX IMVI melanoma, 2.18 µM; in the assay on M14 melanoma, 2.62 µM. Besides, the TGI was determined as 4.08 µM in the assay on NCI-H522 lung, 7.88 µM with OVCAR-3 ovarian, 6.42 µM in the assay with OVCAR-5 ovarian and 3.43 µM in the assay on UACC-62 melanoma.

A word on the TGI: it is the concentration giving total growth inhibition. A lower TGI goes with greater sensitivity of the cells. A word on the GI50: it is the concentration that inhibits growth by half.
